Results: patent US8299048B2, “Hexahydrocyclopentyl[f]indazole sulfonamides and derivatives thereof as selective glucocorticoid receptor modulators” (Merck Sharp & Dohme Corp., priority 2008, dated 2012)

Legend:
human GR [1] = molecular target: T1, human GR (Homo sapiens, UniProt P04150); assay: Trans-Activation Modulation of Glucocorticoid Receptor (GRAMMER), MMTV-LUC reporter, agonist mode; assay type: cell-based; set-up: endogenous in cells; details: for Emax: A549, A549 cells, maximum activity, read-out: Transactivation A549 Cells GRAMMER Emax; for EC50: A549 cells, inflection point, read-out: Transactivation A549 Cells GRAMMER IP
T1 sequence (P04150 1-777): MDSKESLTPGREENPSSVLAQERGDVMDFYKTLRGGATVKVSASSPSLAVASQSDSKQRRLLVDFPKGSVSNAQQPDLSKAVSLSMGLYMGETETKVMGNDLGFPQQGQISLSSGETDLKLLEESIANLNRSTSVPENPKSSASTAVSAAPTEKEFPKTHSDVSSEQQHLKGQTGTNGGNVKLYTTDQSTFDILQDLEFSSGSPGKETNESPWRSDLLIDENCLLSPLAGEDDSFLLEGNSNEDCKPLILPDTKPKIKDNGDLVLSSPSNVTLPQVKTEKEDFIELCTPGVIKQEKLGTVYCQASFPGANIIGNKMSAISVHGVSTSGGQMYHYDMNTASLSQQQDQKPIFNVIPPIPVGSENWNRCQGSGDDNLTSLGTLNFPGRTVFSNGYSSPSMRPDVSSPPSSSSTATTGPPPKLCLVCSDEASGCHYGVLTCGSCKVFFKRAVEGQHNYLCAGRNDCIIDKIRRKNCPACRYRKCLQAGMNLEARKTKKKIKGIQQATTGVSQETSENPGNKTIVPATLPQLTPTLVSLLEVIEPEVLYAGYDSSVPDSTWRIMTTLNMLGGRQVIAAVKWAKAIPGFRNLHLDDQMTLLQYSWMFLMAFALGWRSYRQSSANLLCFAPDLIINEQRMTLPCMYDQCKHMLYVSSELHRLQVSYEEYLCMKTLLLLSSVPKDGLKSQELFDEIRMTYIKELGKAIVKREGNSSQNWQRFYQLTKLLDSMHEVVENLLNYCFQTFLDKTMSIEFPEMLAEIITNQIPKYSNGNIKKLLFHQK
Summary of the method: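 Readout is luciferase from a modified MMTV LTR promoter after 24 h compound exposure alongside 10 nM dexamethasone (100% activity reference), DMSO ≤1%.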

human GR [2] = molecular target: T1, human GR; assay: Transrepression Assay (GITAR), TNFα-β-lactamase reporter in U937 cells; assay type: cell-based; set-up: U937 cells contain an endogenous glucocorticoid receptor (GR); endogenous in cells; host or cells: U937 cells stably transfected with the TNF-alpha promoter/beta-lactamase reporter; details: for GITAR > GRAMM % SEP: GITAR Emax minus GRAMMER Emax; for EC50: U937 cells, inflection point, read-out: Transrepression U937 Cells GITAR IP
Summary of the method: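 U937 cells stably carrying a TNF-α promoter–β-lactamase reporter, with endogenous GR, are preincubated with compound 30–45 min at 37 °C, then stimulated with PMA (5 ng/ml final) and LPS (100 ng/ml final) overnight (~18 hr). β-Lactamase is read with CCF2-AM substrate; repression by 100 nM dexamethasone defines 100%.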

[3] = U-937, U937 cells, maximum activity, read-out: Transrepression U937 Cells GITAR Emax
[4] = U-937, activity repressed by 100 nM dexamethasone alone set as 100%, read-out: maximal activity in the transrepression (GITAR) assay

Row | Emax (human GR [1]) [%] | EC50 (human GR [1]) [nM] | GITAR > GRAMM % SEP (human GR [2]) [%] | EC50 (human GR [2]) [nM] | Emax (human GR [2]; [3]) [%] | Emax (human GR [2]; [4]) [%] | SMILES
1 | 17.2 | 461 | 59.5 | 959 | 76.7 | > 5 | C[C@]12Cc3cnn(-c4ccc(F)cc4)c3C=C1CC[C@@H]2CN(CCO)S(=O)(=O)c1ccccc1Cl [Example 81, 2-chloro-N-{[(4αR,5S)-1-(4-fluorophenyl)-4α-methyl-1,4,4α,5,6,7-hexahydrocyclopenta[f]indazol-5-yl]methyl}-N-(2-hydroxyethyl)benzenesulfonamide]
2 | 63.1 | 257 | 19.2 | 302 | 82.3 | > 5 | Cc1noc(C)c1S(=O)(=O)N(CCO)C[C@H]1CCC2=Cc3c(cnn3-c3ccc(F)cc3)C[C@@]21C [Example 71, N-{[(4αR,5S)-1-(4-fluorophenyl)-4α-methyl-1,4,4α,5,6,7-hexahydrocyclopenta[f]indazol-5-yl]methyl}-N-(2-hydroxyethyl)-3,5-dimethylisoxazole-4-sulfonamide]
3 | 19.6 | 1080 | 41.3 | 894 | 61 | > 5 | Cn1cc(S(=O)(=O)N(CCO)C[C@H]2CCC3=Cc4c(cnn4-c4ccc(F)cc4)C[C@@]32C)c(C(F)(F)F)n1 [Example 65, N-{[(4αR,5S)-1-(4-fluorophenyl)-4α-methyl-1,4,4α,5,6,7-hexahydrocyclopenta[f]indazol-5-yl]methyl}-N-(2-hydroxyethyl)-1-methyl-3-(trifluoromethyl)-1H-pyrazole-4-sulfonamide]
4 | 5.3 | 1180 | 19.2 | 929 | 24.5 | > 5 | Cc1cc(S(=O)(=O)N(CCO)C[C@H]2CCC3=Cc4c(cnn4-c4ccc(F)cc4)C[C@@]32C)c(C)o1 [Example 66, N-{[(4αR,5S)-1-(4-fluorophenyl)-4α-methyl-1,4,4α,5,6,7-hexahydrocyclopenta[f]indazol-5-yl]methyl}-N-(2-hydroxyethyl)-2,5-dimethylfuran-3-sulfonamide]
5 | 35.3 | 475 | 25.5 | 486 | 60.8 | > 5 | C[C@]12Cc3cnn(-c4ccc(F)cc4)c3C=C1CC[C@@H]2CN(CCO)S(=O)(=O)c1cc(F)cc(F)c1 [Example 72]
6 | 6.9 | 568 | 52.6 | 1320 | 59.5 | > 5 | Cc1nn(C)c(Cl)c1S(=O)(=O)N(CCO)C[C@H]1CCC2=Cc3c(cnn3-c3ccc(F)cc3)C[C@@]21C [Example 83, 5-chloro-N-{[(4αR,5S)-1-(4-fluorophenyl)-4α-methyl-1,4,4α,5,6,7-hexahydrocyclopenta[f]indazol-5-yl]methyl}-N-(2-hydroxyethyl)-1,3-dimethyl-1H-pyrazole-4-sulfonamide]

The next lines start with the compound.

Row | SMILES | Emax (human GR [1]) [%] | EC50 (human GR [1]) [nM] | GITAR > GRAMM % SEP (human GR [2]) [%] | EC50 (human GR [2]) [nM] | Emax (human GR [2]; [3]) [%] | Emax (human GR [2]; [4]) [%]
7 | Cn1nc(C(F)(F)F)cc1-c1ccc(S(=O)(=O)N(CCO)C[C@H]2CCC3=Cc4c(cnn4-c4ccc(F)cc4)C[C@@]32C)s1 [Example 67, N-{[(4αR,5S)-1-(4-fluorophenyl)-4α-methyl-1,4,4α,5,6,7-hexahydrocyclopenta[f]indazol-5-yl]methyl}-N-(2-hydroxyethyl)-5-[1-methyl-3-(trifluoromethyl)-1H-pyrazole-5-yl]thiophene-2-sulfonamide] | 6.5 | 450 | 22.8 | 2060 | 29.3 | > 5
8 | Cc1ccc(CCN(C[C@H]2CCC3=Cc4c(cnn4-c4ccc(F)cc4)C[C@@]32C)S(=O)(=O)c2ccccc2F)cc1 [Example 91, 2-fluoro-N-{[(4αR,5S)-1-(4-fluorophenyl)-4α-methyl-1,4,4α,5,6,7-hexahydrocyclopenta[f]indazol-5-yl]methyl}-N-[2-(4-methylphenyl)ethyl]benzenesulfonamide] | 10.7 | 643 | 50.8 | 973 | 61.5 | > 5
9 | C[C@]12Cc3cnn(-c4ccc(F)cc4)c3C=C1CC[C@@H]2CN(CCO)S(=O)(=O)c1ccccc1C#N [Example 78, 2-cyano-N-{[(4αR,5S)-1-(4-fluorophenyl)-4α-methyl-1,4,4α,5,6,7-hexahydrocyclopenta[f]indazol-5-yl]methyl}-N-(2-hydroxyethyl)benzenesulfonamide] | 50.6 | 652 | 15.9 | 883 | 66.5 | > 5
10 | COc1ccccc1CCN(C[C@H]1CCC2=Cc3c(cnn3-c3ccc(F)cc3)C[C@@]21C)S(=O)(=O)c1ccccc1F [Example 90, 2-fluoro-N-{[(4αR,5S)-1-(4-fluorophenyl)-4α-methyl-1,4,4α,5,6,7-hexahydrocyclopenta[f]indazol-5-yl]methyl}-N-[2-(2-methoxyphenyl)ethyl]benzenesulfonamide] | 33.5 | 354 | 34.0 | 651 | 67.6 | > 5
11 | CC(C1CCC2=Cc3c(cnn3-c3ccc(F)cc3)C[C@@]21C)N(CCc1ccccc1F)S(=O)(=O)CC(F)(F)F (stereo partly drawn) [Example 93, 2,2,2-trifluoro-N-[2-(2-fluorophenyl)ethyl]-N-{1-[(4αR)-1-(4-fluorophenyl)-4α-methyl-1,4,4α,5,6,7-hexahydrocyclopenta[f]indazol-5-yl]ethyl}ethanesulfonamide] | 50.9 | 296 | 20.8 | 231 | 71.8 | > 5
12 | C[C@]12Cc3cnn(-c4ccc(F)cc4)c3C=C1CC[C@@H]2CN(CCO)S(=O)(=O)c1cc(C(F)(F)F)ccc1Cl [Example 80, 2-chloro-N-{[(4αR,5S)-1-(4-fluorophenyl)-4α-methyl-1,4,4α,5,6,7-hexahydrocyclopenta[f]indazol-5-yl]methyl}-N-(2-hydroxyethyl)-5-(trifluoromethyl)benzenesulfonamide] | 6 | 1140 | 64.0 | 2580 | 70 | > 5
13 | C[C@]12Cc3cnn(-c4ccc(F)cc4)c3C=C1CC[C@@H]2CN(CCO)S(=O)(=O)c1ccc(F)cc1F [Example 82, 2,4-difluoro-N-{[(4αR,5S)-1-(4-fluorophenyl)-4α-methyl-1,4,4α,5,6,7-hexahydrocyclopenta[f]indazol-5-yl]methyl}-N-(2-hydroxyethyl)benzenesulfonamide] | 61.1 | 287 | 29.1 | 220 | 90.2 | > 5
14 | C[C@]12Cc3cnn(-c4ccc(F)cc4)c3C=C1CC[C@@H]2CN(CCO)S(=O)(=O)c1ccccc1C(F)(F)F [Example 70, N-{[(4αR,5S)-1-(4-fluorophenyl)-4α-methyl-1,4,4α,5,6,7-hexahydrocyclopenta[f]indazol-5-yl]methyl}-N-(2-hydroxyethyl)-2-(trifluoromethyl)benzenesulfonamide] | 25.8 | 564 | 15.1 | 1010 | 40.8 | > 5
